target: human LSD1 (Homo sapiens (Human), UniProt O60341); assay: Evaluation of enzyme activity: LSD1 fluorescence coupling enzyme assay (HRP/Amplex Red); format: biochemical; details: human LSD1, histone H3(1-21)K4me2 peptide 10 μM, 30 min pre-incubation
Description: The purpose of this test is to test the in vitro inhibitory activities of the compounds against LSD1. The enzyme used in this experiment was human LSD1, and the standard substrate was histone H3(1-21)K4me2 peptide (10 μM). HCI-2509 (SP2509) was used as reference compound, and the fluorescence coupling enzyme assay was employed. The production of FAD-dependent H2O2 as a result of demethylase activity of LSD1 was measured by coupling with HRP and Amplex Red. Compounds as well as control compound HCl-2509 were tested in 10-dose IC50 mode with a 3-fold serial dilution in duplicate starting at 10 μm. All compounds were pre-incubated 30 mins with enzyme before added substrate to start reaction. Fluorescence measurement: Ex/Em=535/590 by EnVision.
The test compound's inhibitory activities against LSD11 was classified as: + for IC50≤50 nM; ++ for IC50>50 nM and ≤100 nM; +++ for IC50>100 nM and ≤500 nM, and the results are shown in Table 1.

SMILES | IC50
C[C@H]1CCCN1CC1(CN[C@H]2C[C@@H]2c2ccccc2)CC1 [Example 212] | 100 to 500 nM
O=C(O)c1ccc2c(c1)CN(CC1(CN[C@H]3C[C@@H]3c3ccccc3)CC1)C2 [Example 99] | 100 to 500 nM
c1ccc(C2C[C@@H]2NCC2(c3ccccc3)CCC2)cc1 (stereo partly drawn) [Example 122] | ≤ 50 nM
CC1(C)CCN(CC2(CN[C@H]3C[C@@H]3c3ccccc3)CC2)C1 [Example 202] | 50 to 100 nM
NC1CCN(C(=O)c2nc(C3(CN[C@@H]4C[C@H]4c4ccccc4)CC3)no2)CC1 [Example 160] | ≤ 50 nM
N[C@@H](Cc1nc(C2(CN[C@@H]3C[C@H]3c3ccccc3)CC2)no1)C(=O)O [Example 152] | 100 to 500 nM
CC1(N)CCC(c2nc(C3(CN[C@@H]4C[C@H]4c4ccccc4)CC3)no2)CC1 (stereo partly drawn) [Example 245] | ≤ 50 nM
c1ccc([C@H]2C[C@@H]2NCC2(c3cc([C@H]4CCCNC4)on3)CCC2)cc1 [Example 138] | 50 to 100 nM
O=C(O)c1ccc(CN2CCC(Cc3nc(C4(CN[C@H]5CC5c5ccccc5)CC4)no3)CC2)cc1 (stereo partly drawn) [Example 164] | ≤ 50 nM
Cc1oc(C2(CN[C@H]3C[C@@H]3c3ccccc3)CCC2)nc1C(=O)O [Example 186] | 100 to 500 nM
N#Cc1ccc(CNC2(CN[C@H]3CC3c3ccccc3)CCC2)cc1 (stereo partly drawn) [Example 48] | ≤ 50 nM
O=C(O)c1ccc(NCC2(CN[C@H]3C[C@@H]3c3ccccc3)CCC2)nc1 [Example 84] | 100 to 500 nM
N[C@H]1CC[C@@H](c2nc(C3(CN[C@@H]4C[C@H]4c4ccccc4)CCC3)no2)CC1 [Example 209] | ≤ 50 nM
O=C(O)c1ccc(N2CCC(c3nc(C4(CN[C@H]5CC5c5ccccc5)CC4)no3)CC2)cn1 (stereo partly drawn) [Example 104] | ≤ 50 nM
c1ccc([C@H]2C[C@@H]2NCC2(c3noc([C@@H]4CCCNC4)n3)CC2)cc1 [Example 139] | 50 to 100 nM
O=C(O)c1ccc(N2CCC(c3nc(C4(CN[C@H]5C[C@@H]5c5ccccc5)CC4)no3)CC2)cc1 [Example 103] | 100 to 500 nM
O=C(O)C1CC2(C1)CC(c1nc(C3(CN[C@H]4CC4c4ccccc4)CC3)no1)C2 (stereo partly drawn) [Example 173] | 100 to 500 nM
O=C(O)c1cccc(-c2nc(C3(CN[C@H]4CC4c4ccccc4)CCC3)no2)c1 (stereo partly drawn) [Example 135] | 100 to 500 nM
CCn1ncnc1CNCC1(CN[C@H]2C[C@@H]2c2ccccc2)CC1 [Example 14] | 100 to 500 nM
NC[C@H]1CC[C@H](c2nc(C3(CN[C@@H]4C[C@H]4c4ccccc4)CC3)no2)CC1 [Example 239] | ≤ 50 nM
COC(=O)c1ccc(CN2CCC(c3nc(C4(CN[C@H]5CC5c5ccccc5)CC4)no3)CC2)cc1 (single isomer, unassigned) [Example 165] | 100 to 500 nM
Clc1ccc2nc(C3(CN[C@H]4CC4c4ccccc4)CC3)oc2c1 (stereo partly drawn) [Example 46] | ≤ 50 nM
N#Cc1ccccc1-c1nc(C2(CN[C@H]3CC3c3ccccc3)CCC2)no1 (stereo partly drawn) [Example 91] | ≤ 50 nM
c1ccc(C2C[C@@H]2NCC2(CNCC3CCNC3)CC2)cc1 (stereo partly drawn) [Example 13] | ≤ 50 nM
Cn1ncc2c1CN(CC1(CN[C@H]3CC3c3ccccc3)CC1)C2 (stereo partly drawn) [Example 110] | ≤ 50 nM
CC1CCN(CC2(CN[C@H]3C[C@@H]3c3ccccc3)CC2)C1 (stereo partly drawn) [Example 98] | 50 to 100 nM

SMILES | IC50
O=C(O)c1ccccc1-c1nc(C2(CN[C@H]3C[C@@H]3c3ccccc3)CCC2)no1 [Example 134] | 100 to 500 nM
c1ccc(C2C[C@@H]2NCC2(CNCc3ccc[nH]3)CC2)cc1 (stereo partly drawn) [Example 11] | ≤ 50 nM
CC(=O)N1CCC(c2nc(C3(CN[C@H]4C[C@@H]4c4ccccc4)CC3)no2)CC1 [Example 105] | 50 to 100 nM
CN(C)[C@H]1CC[C@H](c2nc(C3(CN[C@@H]4C[C@H]4c4ccccc4)CC3)no2)CC1 [Example 115] | 100 to 500 nM
N#Cc1cc(F)cc(-c2nc(C3(CN[C@H]4CC4c4ccccc4)CCC3)no2)c1 (stereo partly drawn) [Example 190] | ≤ 50 nM
O=C(O)[C@H]1C[C@@H](c2nc(C3(CN[C@@H]4C[C@H]4c4ccccc4)CC3)no2)C1 [Example 150] | ≤ 50 nM
CC(C)[C@H](N)c1nc(C2(CN[C@@H]3C[C@H]3c3ccccc3)CC2)no1 [Example 154] | 100 to 500 nM
c1ccc([C@@H]2C[C@H]2NCC2(c3noc(C4CCNCC4)n3)CC2)cc1 [Example 231] | 50 to 100 nM
O=C(O)c1ccc(CN2CCC(c3nc(C4(CN[C@H]5C[C@@H]5c5ccccc5)CC4)no3)CC2)cc1 [Example 170] | 100 to 500 nM
O=C(O)C1CCN(c2nc(C3(CN[C@@H]4C[C@H]4c4ccccc4)CC3)no2)CC1 [Example 253] | 100 to 500 nM
Fc1ccccc1CNCC1(CN[C@H]2CC2c2ccccc2)CC1 (stereo partly drawn) [Example 10] | ≤ 50 nM
Cn1cc2c(n1)CN(CC1(CN[C@H]3CC3c3ccccc3)CC1)C2 (stereo partly drawn) [Example 109] | ≤ 50 nM
N[C@H]1CC[C@H](Cc2nc(C3(CN[C@@H]4C[C@H]4c4ccccc4)CC3)no2)CC1 [Example 240] | 50 to 100 nM
OC1CC(CN[C@H]2CC2c2ccccc2)(c2cccnc2)C1 (stereo partly drawn) [Example 86] | ≤ 50 nM
O=C(O)c1ccc(CNC2(CN[C@H]3C[C@@H]3c3ccccc3)CC2)cc1 [Example 200] | 100 to 500 nM
Clc1ccc(C2(CN[C@H]3CC3c3ccccc3)CCC2)cc1 (stereo partly drawn) [Example 123] | ≤ 50 nM
c1ccc(C2C[C@@H]2NCC2(c3noc4ccccc34)CC2)cc1 (stereo partly drawn) [Example 71] | ≤ 50 nM
O=C(O)c1ccc(-c2nc(C3(CN[C@H]4CC4c4ccccc4)CC3)no2)cn1 (stereo partly drawn) [Example 102] | 100 to 500 nM
c1ccc(C2C[C@@H]2NCC2(c3cccnc3)CCC2)cc1 (stereo partly drawn) [Example 119] | ≤ 50 nM
Cc1sc(C2(CN[C@H]3CC3c3ccccc3)CCC2)nc1C(=O)O (stereo partly drawn) [Example 194] | 100 to 500 nM
O=C(O)c1ccc(CN2CCC(c3nc(C4(CN[C@@H]5C[C@H]5c5ccccc5)CC4)no3)CC2)cc1 [Example 169] | 50 to 100 nM
CS(=O)(=O)n1cc2c(n1)CN(CC1(CN[C@H]3C[C@@H]3c3ccccc3)CC1)C2 [Example 106] | 100 to 500 nM
Fc1ccc(-c2nc(C3(CN[C@H]4CC4c4ccccc4)CCC3)no2)c(F)c1 (stereo partly drawn) [Example 187] | ≤ 50 nM
N#Cc1ccc(C(=O)NC2(CN[C@H]3CC3c3ccccc3)CCC2)cc1 (stereo partly drawn) [Example 97] | ≤ 50 nM
O=C(O)[C@H](Cc1ccccc1)NCC1(CN[C@@H]2C[C@H]2c2ccccc2)CC1 [Example 112] | 100 to 500 nM
O=C(O)C12CCC(c3nc(C4(CN[C@H]5C[C@@H]5c5ccccc5)CC4)no3)(CC1)CC2 [Example 177] | 100 to 500 nM

SMILES | IC50
c1ccc([C@H]2C[C@@H]2NCC2(CN3CCC3)CC2)cc1 [Example 211] | 50 to 100 nM
FC1(F)Oc2ccc(-c3nc(C4(CN[C@H]5CC5c5ccccc5)CCC4)no3)cc2O1 (stereo partly drawn) [Example 93] | ≤ 50 nM
O=C(O)[C@@H]1CCN1CC1(CN[C@@H]2C[C@H]2c2ccccc2)CC1 [Example 228] | 100 to 500 nM
c1ccc([C@H]2C[C@@H]2NCC2(c3noc(-c4cncnc4)n3)CCC2)cc1 [Example 128] | 50 to 100 nM
c1ccc(C2C[C@@H]2NCC2(c3noc(-c4cccnc4)n3)CCC2)cc1 (stereo partly drawn) [Example 130] | ≤ 50 nM
N[C@H]1CC[C@H](c2nnc(C3(CN[C@@H]4C[C@H]4c4ccccc4)CC3)o2)CC1 [Example 243] | 100 to 500 nM
O=C(O)[C@H]1CC[C@@H](c2nc(C3(CN[C@H]4C[C@@H]4c4ccccc4)CC3)no2)CC1 [Example 175] | 100 to 500 nM
C[C@@H]1CN(CC2(CN[C@H]3CC3c3ccccc3)CC2)[C@@H](C)CN1C (stereo partly drawn) [Example 221] | 100 to 500 nM
CN(C)CC1(CN[C@H]2C[C@@H]2c2ccccc2)CC1 [Example 5] | 50 to 100 nM
c1ccc([C@H]2C[C@@H]2NCC2(c3nc4ccccc4o3)CC2)cc1 [Example 76] | 50 to 100 nM
c1ccc([C@H]2C[C@@H]2NCC2(CNCc3nccs3)CC2)cc1 [Example 16] | 100 to 500 nM
c1ccc(C2C[C@@H]2NCC2(c3noc4ccccc34)CCC2)cc1 (stereo partly drawn) [Example 72] | ≤ 50 nM
CCN(CC)CC1(CN[C@H]2CC2c2ccccc2)CC1 (stereo partly drawn) [Example 7] | 100 to 500 nM
c1ccc(C2C[C@@H]2NCC2(c3ccccc3)CCCC2)cc1 (stereo partly drawn) [Example 121] | ≤ 50 nM
c1ccc([C@H]2C[C@@H]2NCC2(CNCc3cnc[nH]3)CC2)cc1 [Example 12] | 50 to 100 nM
Fc1ccccc1-c1nc(C2(CN[C@H]3CC3c3ccccc3)CC2)no1 (stereo partly drawn) [Example 185] | ≤ 50 nM
N#Cc1cccc(-c2nc(C3(CN[C@H]4CC4c4ccccc4)CCC3)no2)c1 (stereo partly drawn) [Example 92] | ≤ 50 nM
FC(F)(F)c1ccnc(-c2nc(C3(CN[C@H]4CC4c4ccccc4)CCC3)no2)c1 (stereo partly drawn) [Example 126] | ≤ 50 nM
O=C(O)c1ccc(CN2CC(c3nc(C4(CN[C@H]5C[C@@H]5c5ccccc5)CC4)no3)C2)cc1 [Example 205] | 100 to 500 nM
N[C@H]1CCC[C@@H](c2nc(C3(CN[C@@H]4C[C@H]4c4ccccc4)CC3)no2)C1 [Example 148] | ≤ 50 nM
O=C(O)c1ccc(-c2nc(C3(CN[C@H]4CC4c4ccccc4)CC3)no2)cc1 (stereo partly drawn) [Example 181] | ≤ 50 nM
c1ccc([C@H]2C[C@@H]2NCC2(CNCc3cnc4n3CCC4)CC2)cc1 [Example 17] | 50 to 100 nM
COC(=O)[C@H]1CC[C@H](c2nc(C3(CN[C@H]4C[C@@H]4c4ccccc4)CC3)no2)CC1 [Example 172] | ≤ 50 nM
CN(C)[C@H]1CC[C@H](c2nc(C3(CN[C@H]4C[C@@H]4c4ccccc4)CC3)no2)CC1 [Example 108] | 100 to 500 nM
CC(C)(C)n1nnc(C2(CN[C@H]3C[C@@H]3c3ccccc3)CC2)n1 [Example 3] | 50 to 100 nM
Fc1ccc(-c2nc(C3(CN[C@H]4CC4c4ccccc4)CC3)no2)cc1 (stereo partly drawn) [Example 63] | ≤ 50 nM

— patent publication US11433053B2, “LSD1 inhibitor and preparation method and application thereof” (CSPC ZHONGQI PHARMACEUTICAL TECHNOLOGY (SHIJIAZHUANG) CO., …, priority 2017, dated 2022)
